The METLIN SMRT retention time set (Domingo-Almenara et al. 2019)

Assay: gradient 5% acetonitrile 3 min, to 50% in 2 min, to 85% in 15 min, held 3 min, 100 µL/min
Details: column: Zorbax Extend-C18 2.1 x 50 mm; eluents: water / acetonitrile, 0.1% formic acid
Procedure, shortened: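 Retention times come from adduct peaks that were picked computationally and then checked by hand. The standards, pure and pooled in mixtures of ~100 molecules, were run on a Zorbax Extend-C18 column (2.1 × 50 mm, 1.8 μm) at 100 μL/min with water and acetonitrile, each with 0.1% formic acid. Detection was by quadrupole time-of-flight mass spectrometry in positive and negative ionization mode, with a dead volume of 40 μL and a dwell volume of 900 μL.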

| Compound | RP-LC retention time [s] |
| --- | --- |
| Cc1cc(-c2nc(C3CC3)no2)c(C)n1CC(=O)Nc1ccc(Cl)cc1 | 1020 |
| Cc1ccccc1C(=O)Nc1c(-c2ccccc2)nc2ccccn12 | 634 |
| Cc1cc(C(=O)N2CCCCC2)c2c(=O)n(CC(=O)N(C)c3ccccc3)c(=O)n(C)c2n1 | 812 |
| COC(=O)CNC(=O)N1c2ccccc2CC1c1nc(C2CC2)no1 (configuration not stated) | 815 |
| O=C(N[C@H]1C[C@@H]2C[C@H]1CN2C(=O)c1cccc(OC(F)(F)F)c1)c1ccccc1 | 846 |
| Nc1c(C(=O)NCC2CC2)nsc1C(=O)O | 770 |
| Cc1cc(C)cc(OCc2nc(CCN(C)C(=O)NCc3ccccc3)no2)c1 | 980 |
| COc1cc(OC)c(NC(=O)c2cc3c(=O)n(CC(C)C)ccc3n2C)cc1Cl | 924 |
| CCn1nccc1-c1cccc(-c2noc(CNC(=O)Cc3ccccc3)n2)c1 | 855 |
| CC(=O)c1ccc(NC(=O)C(C)Oc2cc(-c3ccccc3)c3c(C)nn(C)c3n2)cc1 (configuration not stated) | 990 |
| CCN(CC)C(=O)N1CC(Oc2ccc(-c3nc(C)no3)cc2)C1 | 824 |
| COc1ccc(NC(=O)c2cc(C(C)C)n(-c3nc4ccccc4s3)n2)cc1OC | 1200 |
| Cc1ccc2c(c1)C(=O)NC1(CCN(C(=O)c3ccc(F)c(Cl)c3)CC1)N2C | 919 |
| CCCn1cc(C(=O)NCC(C)C)c2nn(-c3ccccc3)c(=O)c-2c1 | 878 |
| CNC(=O)NC1CCN(c2ccc(C)c(C)c2)C1=O (configuration not stated) | 654 |
| COCCN1C(=O)c2ccccc2C(C(=O)NCCCOC(C)C)C12CCCCC2 (configuration not stated) | 756 |
| Cc1ccc(CNC(=O)C2(C)CN(S(C)(=O)=O)CC(=O)N2Cc2ccc(N(C)C)cc2)cc1 (configuration not stated) | 668 |
| N#Cc1cc2c(nc1SCC(=O)Nc1nc(-c3ccccc3)cs1)CCCC2=O | 1020 |
| COc1ccc(-c2noc(Cc3nnc(-c4ccc(C)c(F)c4)o3)n2)cc1OC | 996 |
| CCN1C(=O)c2cccc3c(NC(=O)c4c(F)cccc4F)ccc1c23 | 739 |
| Cc1ccc(C2CC(=O)N(c3ccc(F)cc3F)C(=O)C2)cc1 | 987 |
| CCc1noc(NC(C)=O)c1-c1ccc(OC)c(S(=O)(=O)N2CCc3ccccc32)c1 | 860 |
| Cc1cc(NC(=O)CN2C(=O)c3ccccc3C2=O)n(-c2ccccc2)n1 | 709 |
| Cc1cc(C)n(CCC(=O)NCCn2c(C)cnc2C2CCC2)n1 | 577 |
| O=C1CCc2cc(NC(=O)c3ccc([N+](=O)[O-])cc3Cl)ccc2N1 | 807 |
| CCOC(=O)c1c(C)n(C)c2ccc(OCCN(C)C)cc12 | 632 |

| Compound | RP-LC retention time [s] |
| --- | --- |
| Cc1nc2ccc(Cl)cn2c(=O)c1NC(=O)Cc1ccc(-c2ccccc2)cc1 | 775 |
| COc1cc(NC(=O)Cc2csc3nc(-c4ccc(Cl)cc4)cn23)cc(OC)c1OC | 875 |
| COc1cccc(CCN2CC(=O)N(c3ccc(C)c(C)c3)[C@@H]3CS(=O)(=O)C[C@@H]32)c1 | 872 |
| CCCn1cc(CCNS(=O)(=O)c2ccccc2C(F)(F)F)c2cccnc21 | 904 |
| CCNC(=O)c1[nH]c2ccccc2c1N1CCCC1=O | 657 |
| O=C(NCC(=O)N1CCn2c1nc1ccccc12)c1ccc(=O)[nH]c1 | 555 |
| Cc1onc(-c2ccccc2Cl)c1C(=O)Nc1nc(-c2ccc([N+](=O)[O-])cc2)cs1 | 1100 |
| Cc1ccc(-c2nc(-c3cccc(-c4ccn[nH]4)c3)no2)cc1C | 1150 |
| Cc1noc2nc(C)n(CC(=O)NCC(C)c3ccccc3)c(=O)c12 (configuration not stated) | 782 |
| CC(=O)Nc1ccc(-n2cnc(C(=O)NCc3ccccc3)c2)nc1 | 663 |
| COc1cc(C(=O)N2CCC[C@@H]2C(=O)NCc2csc(-c3ccccc3)n2)cc(OC)c1OC | 769 |
| Cn1ccc2c(cc(C(=O)NCc3ccccc3F)n2C)c1=O | 678 |
| CO[C@H]1C(=O)N(C(C)C)[C@H]1C1CCN(C(=O)c2sc(C)nc2C)CC1 | 650 |
| Cc1ccc(NC(=O)c2cc(C)n3nc(C)cc3n2)c(C)c1 | 1140 |
| O=C1CCc2cc(NC(=O)c3n[nH]c4ccccc34)ccc2N1 | 633 |
| CCOC(=O)Cc1ccc(NC(=O)NCCc2c(C)nn(C)c2C)cc1 | 644 |
| CC(C)(C)NCC(O)c1ccccc1Cl (configuration not stated) | 650 |
| C[C@H](CCC(=O)NCCS(=O)(=O)O)[C@H]1CC[C@H]2[C@@H]3[C@H](O)C[C@@H]4C[C@H](O)CC[C@]4(C)[C@H]3C[C@H](O)[C@]12C | 665 |
| CC(C)NC(=O)N1CCNC(=O)C1 | 540 |
| Cc1cc(C)n(-c2nc(C)c(C(=O)Nc3ccccc3F)s2)n1 | 1120 |
| O=S(=O)(c1cccc2c(Cl)cccc12)N1CCCNCC1 | 716 |
| Cc1oc(-c2[nH]ncc2C(=O)N2CCCC2)cc1S(=O)(=O)NCc1cccc(F)c1 | 706 |
| COc1cccc(NC(=O)NCC(c2cccnc2)c2cn(C)c3ccccc23)c1 (configuration not stated) | 684 |
| O=C(NCc1ccccn1)c1scc(-c2ccc(F)cc2)c1-n1cccc1 | 821 |
| Cc1cccc(C)c1NS(=O)(=O)c1cc(-c2cc(C(F)(F)F)on2)sc1C | 1230 |

Further lines, results first:

| RP-LC retention time [s] | Compound |
| --- | --- |
| 635 | O=C(CCCn1c(=O)c2cccn2c2ccc(F)cc21)N1CCN(c2ccccn2)CC1 |
| 976 | CCOC(=O)C1CCN(S(=O)(=O)c2cc(-c3nnc(-c4ccccc4)o3)ccc2OC)CC1 |
| 675 | COc1cccc(CNC(=O)C2CCCN(c3cnc4nccnc4c3)C2)c1OC (configuration not stated) |
| 666 | CS(=O)(=O)N(C1CCOCC1)C1CN(C(=O)Nc2ccccc2)C1 |
| 770 | CCc1nnc(C2CCN(C(=O)c3ccc(F)cc3F)CC2)s1 |
| 743 | COc1cccc(N2CCN(C(=O)c3cn(-c4ccc(NC(=O)C5CC5)cn4)cn3)CC2)c1 |
| 546 | COc1ccc(O)c(CNC2CCN(c3ccc(C(=O)NC4CC4)cn3)C2)c1 (configuration not stated) |
| 1180 | CC(C)Cc1nc(N2CCN(C(=O)c3ccco3)CC2)c(C#N)c2c1COC(C)(C)C2 |
| 557 | CC(=O)N1CCc2cc(N3CC(C(=O)NCc4cccnc4)CC3=O)ccc21 (configuration not stated) |
| 625 | C=CCNC(=O)C(=O)N1CCN(c2ccc(OC)cc2)CC1 |
| 779 | CCN1C(=O)c2c(C(=O)NCc3ccccc3Cl)ncn2CC1(C)C(=O)NC1CCCC1 (configuration not stated) |
| 892 | Cc1ccc(-c2nnc(N3CCC(C(=O)NC(C)c4ccc(F)cc4)CC3)o2)cc1 (configuration not stated) |
| 632 | O=C(NC1CCCC1)C1CCN(C(=O)c2cccn2-c2cccnc2)CC1 |
| 795 | Cc1nnc(N2CCCC(C(=O)N(C)Cc3ccccc3)C2)c2nn(-c3ccc(Cl)cc3)c(C)c12 (configuration not stated) |
| 579 | CN1CCN(CCCNC(=O)CN2C(=O)C3CCCCN3c3ccc(C(=O)N4CCCC4)cc32)CC1 (configuration not stated) |
| 802 | O=C(NCc1ccc(Cl)cc1)C1CCN(C(=O)c2ncn3c2COC(c2ccccc2)C3)CC1 (configuration not stated) |
| 1000 | CCn1c(=O)c(N2CCCC(C(=O)N3CCCCCC3)C2)nc2cccnc21 (configuration not stated) |
| 614 | CC(C)CN1C(=O)c2cccn2CC1C(=O)NCCN(C)C1CCCCC1 (configuration not stated) |

| RP-LC retention time [s] | Compound |
| --- | --- |
| 571 | CCC(CN1CCOCC1)NC(=O)C1CCN(c2ccc(-c3cccs3)nn2)CC1 (configuration not stated) |
| 891 | CCN1CCCn2nc(C3CCN(S(=O)(=O)c4ccc(C)c(C)c4)CC3)cc2C1=O |
| 868 | Cc1nc(-c2noc(-c3ccccc3)n2)cn1CC(=O)N1CCN(c2ccc(F)cc2)CC1 |
| 788 | Cc1ccccc1N1CCN(S(=O)(=O)c2cc3n(c2)CCCNC3=O)CC1 |
| 666 | Cc1nc(-c2cc(S(=O)(=O)N3CCC(C(=O)NCCN4CCCCCC4)CC3)c(C)s2)no1 |
| 803 | CCNc1nc(C)cc(N2CCN(S(=O)(=O)c3cc(C(C)(C)C)ccc3OC)CC2)n1 |
| 791 | CN1C(=O)c2cc(C(=O)Nc3cccc(F)c3)nn2CC1(C)C(=O)NC1CCCCCC1 (configuration not stated) |
| 845 | COc1cccc(NC(=O)C2CCN(S(=O)(=O)c3ccc4c(c3)sc(=O)n4C)CC2)c1 |
| 762 | CCc1cccc(NC(=O)C2CCN(C(=O)C3Sc4ccccc4NC3=O)CC2)c1 (configuration not stated) |
| 720 | COc1ccccc1C(=O)Nc1nnc(C2CC(=O)N(c3ccccc3)C2)o1 (configuration not stated) |
| 710 | CCC(C)NC(=O)CC1CCN(C(=O)c2ccc3oc(C4CC4)nc3c2)CC1 (configuration not stated) |
| 916 | Cc1ccc(NC(=O)C2CCN(S(=O)(=O)c3cc(C(=O)N4CCCC4)cs3)CC2)cc1Cl |
| 564 | CN1CCCN(C(=O)C2CC(=O)N(c3ccc4c(c3)CCN4C(=O)C3CC3)C2)CC1 (configuration not stated) |
| 555 | CCn1nccc1C(=O)N1CCC(c2nc3ccncc3n2CC(C)C)C1 (configuration not stated) |
| 638 | O=C(Cn1c(C2CCCO2)nc2ccccc21)Nc1ccccc1 (configuration not stated) |
| 774 | O=C(NCc1noc(-c2ccc(F)cc2)n1)C1CCC1 |
| 574 | CS(=O)(=O)N1C[C@H]2CCN(Cc3cn[nH]c3-c3ccccc3)C[C@H]21 |
| 710 | Cc1ccsc1C(=O)N1CC[C@@H](n2c(=O)n(C)c3cccnc32)C1 |
